Measurements published in patent US12195467B2, “Compound having TrkA inhibitory activity and pharmaceutical composition, for preventing or alleviating pain, containing same as active ingredient” (JBKLAB CO., LTD., priority 2018, dated 2025).

Key:
TrkA = target: T1, TrkA (Homo sapiens, UniProt P04629); assay: TrkA inhibitory activity, CycLex TrkA kinase assay/inhibitor screening kit; type: biochemical; conditions: for inhibition at 1 µM: compound 1 μM, read-out: % inhibition rate (based on 1 μM)
T1 construct: purchased MBL International (CycLex) CY-1091
T1 sequence (P04629 33-796): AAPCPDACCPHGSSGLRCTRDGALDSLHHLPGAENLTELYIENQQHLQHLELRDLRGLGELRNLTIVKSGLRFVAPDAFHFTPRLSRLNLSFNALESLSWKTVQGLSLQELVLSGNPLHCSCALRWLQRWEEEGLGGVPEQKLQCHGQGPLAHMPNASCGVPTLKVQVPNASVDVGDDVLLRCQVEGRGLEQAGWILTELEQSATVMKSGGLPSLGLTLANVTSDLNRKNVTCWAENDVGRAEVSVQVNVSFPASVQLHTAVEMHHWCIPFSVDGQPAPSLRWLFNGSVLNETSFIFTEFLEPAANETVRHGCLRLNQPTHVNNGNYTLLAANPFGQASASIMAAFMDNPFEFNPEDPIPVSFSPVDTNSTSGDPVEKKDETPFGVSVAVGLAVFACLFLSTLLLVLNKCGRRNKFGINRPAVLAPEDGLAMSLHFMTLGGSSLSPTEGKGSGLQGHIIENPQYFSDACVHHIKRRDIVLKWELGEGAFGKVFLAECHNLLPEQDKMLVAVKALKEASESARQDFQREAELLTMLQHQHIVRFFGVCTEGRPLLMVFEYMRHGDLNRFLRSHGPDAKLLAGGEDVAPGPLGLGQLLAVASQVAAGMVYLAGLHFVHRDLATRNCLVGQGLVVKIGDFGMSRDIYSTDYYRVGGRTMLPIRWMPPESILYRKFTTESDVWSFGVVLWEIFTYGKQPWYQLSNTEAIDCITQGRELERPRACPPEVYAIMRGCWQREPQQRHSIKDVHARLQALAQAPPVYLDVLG
Protocol: The TrkA inhibitory activity of the compounds was evaluated using CycLex® TrkA kinase assay/inhibitor screening kit of MBL International (Cat No. CY-1091). The test was carried out according to the analysis method provided by the manufacturer. The test method is as follows.
1. 1× wash buffer was prepared by diluting 10× wash buffer in ddH2O.
2. 20×ATP solution (1.25 mM) was prepared by adding 1.6 mL of distilled water to the tube containing ATP dissolved in NA2 salt and freeze-dried.
4. A working solution mixture and a solution of the appropriate concentration of the example compound to evaluate the activity of the example compound were prepared and dispensed into a 96-well plate as shown in table below.
5. After dispensing the solutions into a 96-well plate, the plate was incubated at 30° C. for 30 minutes.
6. After incubation of the plate at 30° C. for 30 minutes, 200 μL of 1× wash buffer was added into each well of the plate, followed by washing. This process was repeated 5 times.
7. After washing the plate, 100 μL of HRP conjugated detection antibody (PX-39) was added into each well of the plate, followed by reaction at room temperature for 60 minutes.
8. Upon completion of the reaction, 200 μL of 1× wash buffer was added into each well of the plate, followed by washing. This process was repeated 5 times.
9. After washing the plate, 100 μL of substrate reagent containing chromogenic substrate and tetra-methylbenzidine (TMB) was added into each well of the plate, followed by incubation at room temperature for 5-15 minutes.
10. Upon completion of the reaction, 100 μL of stop solution (1 N H2SO4) was added into each well of the plate, followed by measuring OD450 within 30 minutes.

TrkB = target: T2, TrkB (Homo sapiens, UniProt Q16620); assay: PathHunter eXpress TrkB functional assay kit (U2OS cells, agonist BDNF); type: cell-based; conditions: compound 1 μM, read-out: TrkB % inhibition rate (based on 1 μM)
T2 construct: host or cells: U2OS
T2 sequence (Q16620 32-822): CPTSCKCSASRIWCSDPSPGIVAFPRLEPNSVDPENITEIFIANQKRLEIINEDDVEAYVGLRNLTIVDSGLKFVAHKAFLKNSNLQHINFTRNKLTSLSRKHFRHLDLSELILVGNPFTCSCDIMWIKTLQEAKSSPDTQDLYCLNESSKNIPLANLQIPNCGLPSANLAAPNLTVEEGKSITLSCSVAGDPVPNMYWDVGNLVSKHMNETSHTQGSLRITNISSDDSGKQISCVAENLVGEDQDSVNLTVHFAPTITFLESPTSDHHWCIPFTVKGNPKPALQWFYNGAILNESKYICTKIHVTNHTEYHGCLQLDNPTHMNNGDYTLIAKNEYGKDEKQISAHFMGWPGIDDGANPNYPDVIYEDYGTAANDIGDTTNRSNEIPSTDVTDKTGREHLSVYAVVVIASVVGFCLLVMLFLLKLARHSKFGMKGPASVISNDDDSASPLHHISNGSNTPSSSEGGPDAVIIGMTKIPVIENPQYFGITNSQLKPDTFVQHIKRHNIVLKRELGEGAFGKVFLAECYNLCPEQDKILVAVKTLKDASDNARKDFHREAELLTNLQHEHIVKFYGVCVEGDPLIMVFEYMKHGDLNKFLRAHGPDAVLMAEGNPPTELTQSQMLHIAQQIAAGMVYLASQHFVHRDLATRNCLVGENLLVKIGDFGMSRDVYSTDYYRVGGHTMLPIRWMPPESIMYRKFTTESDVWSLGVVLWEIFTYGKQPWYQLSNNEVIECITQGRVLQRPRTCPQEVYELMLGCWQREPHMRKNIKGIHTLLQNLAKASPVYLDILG
Protocol: (§1) The inhibitory activity of the example compounds against TrkB and TrkC was evaluated using PathHunter® eXpress TrkB or TrkC functional assay kit (Product Code: 93-0463E3 and 93-0464E3) of DiscoverX. The test was carried out according to the analysis method provided by the manufacturer. The test was carried out as follows over 2 or 3 days depending on the conditions of cells.
(§2) 1. Before starting the experiment, the cell plating (CP) reagent stored at −80° C. was dissolved in a 37° C. water bath.
(§3) 2. When the CP reagent was dissolved, cell vials for TrkB or TrkC were prepared to be dissolved.
(§4) 3. Two U2OS cell vials (TrkB kit & TrkC kit) stored in liquid nitrogen were thawed.
(§5) 4. 500 μL of CP reagent was added to the thawed cell vial, and the cells were sufficiently mixed by pipetting and transferred to a Conical tube in which 11.5 mL of CP reagent was dispensed.
(§6) 5. 12 mL cells (1×10^6 cells in CP reagent) were seeded on a 96-well tissue culture treated plate (100 μL/well), followed by culture in a 37° C., 5% CO2 humidified incubator for 24 hours or 48 hours.
(§7) Day 2 or Day 3: Treatment of Test Material
(§8) 1. Test material, agonist and antagonist were prepared as stock solutions according to the experiment design. • Test material: 10 mM Stock solution in DMSO • Antagonist (GNF-5837): 10 mM Stock solution in 1.8674 mL DMSO • Agonist: TrkB agonist→BDNF, TrkC agonist→NT-3
(§9) 2. 10 mM stock solutions of teat material and antagonist having the concentration of 22 times more concentrated than the final screening concentration were prepared according to the experiment design.
(§10) 3. Each well of the 96-well culture plate containing cells was treated with 5 μL of the solutions of teat material and antagonist having the concentration of 22 times more concentrated than the final screening concentration (#2), followed by incubation at 37° C. for 60 minutes.
(§11) 4. During the incubation, 10 μg/mL stock solution of each agonist for TrkB and TrkC was prepared using a reconstitution buffer for the purpose of the experiment, and each well of the plate was treated with 5 μL of the prepared solution, followed by incubation at 19-25° C. for 3 hours.
(§12) 5. During the incubation, a detection reagent working solution (4.75 ml Cell assay buffer, 1.25 ml Substrate Reagent 1, 0.25 ml Substrate Reagent 2) was prepared. Upon completion of the incubation, 55 μL of the working solution was added into each well of the plate.
(§13) 7. The plate was incubated at room temperature for 60 minutes in a dark place, and the […] was measured with a luminescence plate reader.

TrkC = target: T3, TrkC (Homo sapiens, UniProt Q16288); assay: PathHunter eXpress TrkC functional assay kit (U2OS cells, agonist NT-3); type: cell-based; conditions: for inhibition at 1 µM: compound 1 μM, read-out: TrkC % inhibition rate (based on 1 μM)
T3 construct: host or cells: U2OS
T3 sequence (Q16288 32-839): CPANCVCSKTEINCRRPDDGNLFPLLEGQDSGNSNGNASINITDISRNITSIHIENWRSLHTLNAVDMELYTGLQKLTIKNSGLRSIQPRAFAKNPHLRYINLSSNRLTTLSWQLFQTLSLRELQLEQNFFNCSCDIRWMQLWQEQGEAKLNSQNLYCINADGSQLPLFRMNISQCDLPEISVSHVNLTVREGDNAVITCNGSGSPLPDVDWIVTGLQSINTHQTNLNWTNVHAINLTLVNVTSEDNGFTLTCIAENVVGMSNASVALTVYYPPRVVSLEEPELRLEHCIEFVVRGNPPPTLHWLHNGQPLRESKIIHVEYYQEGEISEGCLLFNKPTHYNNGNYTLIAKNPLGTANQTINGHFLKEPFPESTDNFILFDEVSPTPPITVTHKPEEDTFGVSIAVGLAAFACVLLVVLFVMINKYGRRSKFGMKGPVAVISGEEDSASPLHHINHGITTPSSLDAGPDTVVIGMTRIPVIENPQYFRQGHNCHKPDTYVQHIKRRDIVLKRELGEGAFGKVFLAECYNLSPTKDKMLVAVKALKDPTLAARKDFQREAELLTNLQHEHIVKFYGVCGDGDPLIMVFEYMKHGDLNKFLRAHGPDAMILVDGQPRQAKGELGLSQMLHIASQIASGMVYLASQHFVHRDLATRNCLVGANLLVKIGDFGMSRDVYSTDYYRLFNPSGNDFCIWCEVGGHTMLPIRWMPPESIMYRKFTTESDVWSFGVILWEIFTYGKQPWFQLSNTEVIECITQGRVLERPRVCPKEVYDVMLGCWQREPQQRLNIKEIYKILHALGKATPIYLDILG
Protocol: as §1, §2, §3, §4, §5, §6, §7, §8, §9, §10, §11, §12, §13

[1] = system: postoperative pain animal model; assay: Pharmacological activity in postoperative pain model (von-Frey mechanical allodynia, 50% withdrawal threshold); type: in vivo, Sprague-Dawley male rats; conditions: oral, rat postoperative pain model, 2 days after surgery; for ED50: 48 h, read-out: ED50
Protocol: Sprague-Dawley male rats weighing around 150 g (Orient bio., Korea) were used. Rats were raised in an environment where a 12-hour light-dark cycle was maintained, 4 per transparent plastic cage covered with scob as bedding. Food and water were provided freely. To verify the analgesic effect of the example compounds, all rats were anesthetized with O2 delivered from the induction chamber at a ratio of 3:3 of isoflurane and operated. Anesthetized rats were placed on a 37° C. warm plate to prevent hypothermia during the operation. The ipsilateral sole (left) of the hind paw of the experimental animal was disinfected with 10% povidone-iodine solution, and incised to a length of 1 cm with a #11 surgical knife. The incision was made starting from 0.5 cm of the proximal edge of the heel through the skin and fascia on the side of the ipsilateral sole toward the toe. After the incision, a gentle pressure was applied to the incision site to stop the bleeding and the skin was sutured. The surgical site was sterilized with 10% povidone-iodine solution, and gentamicin (8 mg/kg) was administered intraperitoneally to prevent infection. The analgesic effect of the compound on postoperative pain was evaluated in the experimental animals 2 days after the surgery. […] The formula for calculating the 50% withdrawal threshold (g) is as follows. 50% Withdrawal threshold (g)=(10^(x+kd))/10^4 [Mathematical Formula 1] • x=the value of the last tested filament (log unit value). • k=the value indicating positive/negative reaction by up-down method. • d=the value fixed at 0.224 as the average difference between stimuli.

IC50 (TrkA) [nM] | inhibition at 1 µM (TrkA) [%] | inhibition at 1 µM (TrkB) [%] | IC50 (TrkC) [nM] | inhibition at 1 µM (TrkC) [%] | Structure (SMILES) | ED50 [1] [mg/kg] | Maximum duration of drug efficacy [1] [h]
213 | 98 | 27 | 1070 | 49 | CN1CCN(c2ccc(C(=O)Nc3n[nH]c4ncc(-c5ccccc5)cc34)cc2)CC1 [Example 10, 4-(4-methylpiperazine-1-yl)-N-(5-phenyl-1H-pyrazolo[3,4-b]pyridine-3-yl)benzamide] | 3.8 | 0.5
179 | 99 | -1 | – | 0 | CN1CCN(c2ccc(C(=O)Nc3n[nH]c4ncc(-c5ccncc5)cc34)cc2)CC1 [Example 13, 4-(4-methylpiperazine-1-yl)-N-(5-(pyridine-4-yl)-1H-pyrazolo[3,4-b]pyridine-3-yl)benzamide] | 11.5 | 1.0
122 | 101 | -8 | – | -20 | CN1CCN(c2ccc(C(=O)Nc3n[nH]c4ncc(Br)cc34)cc2)CC1 [Example 14, N-(5-bromo-1H-pyrazolo[3,4-b]pyridine-3-yl)-4-(4-methylpiperazine-1-yl)benzamide] | 3.8 | 0.5
– | 95 | 4 | – | -16 | Oc1c(Cl)cc(-c2c[nH]c3ncnc(-c4cnn(C5CCNCC5)c4)c23)cc1Cl [Example 15, 2,6-dichloro-4-(4-(1-(piperidine-4-yl)-1H-pyrazole-4-yl)-7H-pyrrolo[2,3-d]pyrimidine-5-yl)phenol] | 20.1 | 0.5
